Measurements published in ChEMBL document CHEMBL1944637, “Asymmetric synthesis and cytotoxicity of (-)-saframycin A analogues” (Eur J Med Chem, 2012).

Experiments:
HeLa = assay: Cytotoxicity against human HeLa cells assessed as cell viability after 72 hrs by MTT assay; type: functional, cell-based
HCT-8 = assay: Cytotoxicity against human HCT8 cells assessed as cell viability after 72 hrs by MTT assay; type: functional, cell-based; conditions: HCT-8, 72 h
[1] = Cytotoxicity against human BGC803 cells assessed as cell viability after 72 hrs by MTT assay; type: functional, cell-based; conditions: BGC803, 72 h
[2] = Cytotoxicity against human HELF cells assessed as cell viability after 72 hrs by MTT assay; type: functional, cell-based
A549 [3] = assay: Cytotoxicity against human A549 cells assessed as cell viability after 72 hrs by MTT assay; type: functional, cell-based; conditions: A549, 72 h
KETR3 = assay: Cytotoxicity against human Ketr3 cells assessed as cell viability after 72 hrs by MTT assay; type: functional, cell-based; conditions: KETR3, 72 h
Bel-7402 = assay: Cytotoxicity against human Bel7402 cells assessed as cell viability after 72 hrs by MTT assay; type: functional, cell-based; conditions: Bel-7402, 72 h
MCF7 = assay: Cytotoxicity against human MCF7 cells assessed as cell viability after 72 hrs by MTT assay; type: functional, cell-based; conditions: MCF7, 72 h
KB = assay: Cytotoxicity against human KB cells assessed as cell viability after 72 hrs by MTT assay; type: functional, cell-based
A2780 = assay: Cytotoxicity against human A2780 cells assessed as cell viability after 72 hrs by MTT assay; type: functional, cell-based; conditions: A2780, 72 h
A549 [4] = assay: Ratio of Saframycin A IC50 to compound IC50 for human A549 cells; type: functional

Compound | IC50 (HeLa) [nM] | IC50 (HCT-8) [nM] | IC50 [1] [nM] | IC50 [2] [nM] | IC50 (A549 [3]) [nM] | IC50 (KETR3) [nM] | IC50 (Bel-7402) [nM] | IC50 (MCF7) [nM] | IC50 (KB) [nM] | IC50 (A2780) [nM] | Ratio IC50 (A549 [4])
COC1=C(C)C(=O)C2=C(C1=O)[C@@H]1[C@@H]3CC4=C(C(=O)C(OC)=C(C)C4=O)[C@H](CNC(=O)/C=C/c4ccc(C(C)(C)C)cc4)N3[C@@H](C#N)[C@H](C2)N1C | 31.2 | > 100 | 31 | > 100 | > 100 | > 100 | > 100 | 25.6 | 26.3 | – | –
COC1=C(C)C(=O)C2=C(C1=O)[C@@H]1[C@@H]3CC4=C(C(=O)C(OC)=C(C)C4=O)[C@H](CNC(=O)c4ccc5ccccc5n4)N3[C@@H](C#N)[C@H](C2)N1C | 9.51 | 43.4 | 21.5 | 19.8 | 65.3 | 69.9 | 23.7 | 14.9 | 16.6 | 29.6 | –
COC1=C(C)C(=O)C2=C(C1=O)[C@@H]1[C@@H]3CC4=C(C(=O)C(OC)=C(C)C4=O)[C@H](CNC(=O)/C=C/c4ccc(OC)c(OC)c4OC)N3[C@@H](C#N)[C@H](C2)N1C | 3.85 | 27.4 | 6.27 | > 100 | 81.8 | 15.5 | 11.4 | 5.44 | 9.85 | 33.7 | –
COc1c(C)cc2c(c1O)[C@@H]1[C@@H]3Cc4cc(C)c(OC)c(O)c4[C@H](CNC(=O)OC(C)(C)C)N3[C@@H](C#N)[C@H](C2)N1C | 92.7 | 63.8 | 32.1 | 19.5 | 26.8 | 23.7 | 32.4 | 17.3 | 31.4 | 45 | –
COC1=C(C)C(=O)C2=C(C1=O)[C@@H]1[C@@H]3CC4=C(C(=O)C(OC)=C(C)C4=O)[C@H](CNC(=O)/C=C/c4ccc(OC)cc4)N3[C@@H](C#N)[C@H](C2)N1C | 7.77 | 46.7 | 6.91 | 4.88 | 23.8 | 11 | 6.23 | 5.35 | 9.04 | 14.4 | –
COC1=C(C)C(=O)C2=C(C1=O)[C@@H]1[C@@H]3CC4=C(C(=O)C(OC)=C(C)C4=O)[C@H](CNC(=O)c4cc5ccccc5[nH]4)N3[C@@H](C#N)[C@H](C2)N1C | 5.29 | 90.5 | 26.3 | 17.5 | 35 | 19.7 | 11.5 | 22.9 | 14.9 | 11.2 | –
COC1=C(C)C(=O)C2=C(C1=O)[C@@H]1[C@@H]3CC4=C(C(=O)C(OC)=C(C)C4=O)[C@H](CNC(=O)c4cnccn4)N3[C@@H](C#N)[C@H](C2)N1C | 1.89 | 10.5 | 12.1 | 1.53 | 1.89 | 1.61 | 1.87 | 3.06 | 1.85 | 7.17 | 20
CCc1ccc(/C=C/C(=O)NC[C@H]2C3=C(C[C@H]4[C@H]5C6=C(C[C@@H]([C@H](C#N)N24)N5C)C(=O)C(C)=C(OC)C6=O)C(=O)C(C)=C(OC)C3=O)cc1 | 8.68 | > 100 | 21.2 | > 100 | 96.7 | 52.1 | 24.3 | 18.5 | 28.4 | 25.5 | –
COC1=C(C)C(=O)C2=C(C1=O)[C@@H]1[C@@H]3CC4=C(C(=O)C(OC)=C(C)C4=O)[C@H](CNC(=O)c4nccc5ccccc45)N3[C@@H](C#N)[C@H](C2)N1C | 26.6 | > 100 | 58.5 | 85.4 | 88.6 | > 100 | 84.7 | 24.2 | 75 | 98 | –
COC1=C(C)C(=O)C2=C(C1=O)[C@@H]1[C@@H]3CC4=C(C(=O)C(OC)=C(C)C4=O)[C@H](CNC(=O)c4cccc(C(F)(F)F)c4)N3[C@@H](C#N)[C@H](C2)N1C | 43.2 | > 100 | 58.5 | 25.7 | > 100 | 30.6 | 21 | 26.1 | 53.9 | 47.1 | –
COC1=C(C)C(=O)C2=C(C1=O)[C@@H]1[C@@H]3CC4=C(C(=O)C(OC)=C(C)C4=O)[C@H](CNC(=O)C(C)=O)N3[C@@H](C#N)[C@H](C2)N1C [SAFRAMYCIN A] | 1.06 | 2.49 | 11 | 2.54 | 40.4 | 9.56 | 1.83 | 6.39 | 2.23 | 2.75 | –
COC1=C(C)C(=O)C2=C(C1=O)[C@@H]1[C@@H]3CC4=C(C(=O)C(OC)=C(C)C4=O)[C@H](CNC(=O)/C=C/c4cccc(C(F)(F)F)c4)N3[C@@H](C#N)[C@H](C2)N1C | 7.9 | 43.3 | 22.3 | > 100 | 77.1 | 28.9 | 29.7 | 4.2 | 11.7 | 39.8 | –
COC1=C(C)C(=O)C2=C(C1=O)[C@@H]1[C@@H]3CC4=C(C(=O)C(OC)=C(C)C4=O)[C@H](CNC(=O)c4ccco4)N3[C@@H](C#N)[C@H](C2)N1C | 2.58 | 12.4 | 16 | 1.68 | 0.95 | 3.01 | 1.22 | 15.3 | 3.55 | 3.87 | –
COC1=C(C)C(=O)C2=C(C1=O)[C@@H]1[C@@H]3CC4=C(C(=O)C(OC)=C(C)C4=O)[C@H](CNC(=O)c4cc(Br)ccc4Cl)N3[C@@H](C#N)[C@H](C2)N1C | > 100 | > 100 | 66.2 | – | – | – | – | – | – | – | –
COC1=C(C)C(=O)C2=C(C1=O)[C@@H]1[C@@H]3CC4=C(C(=O)C(OC)=C(C)C4=O)[C@H](CNC(=O)c4cccs4)N3[C@@H](C#N)[C@H](C2)N1C | 17.4 | > 100 | 4.19 | 27.2 | > 100 | 37.3 | 16.4 | 45.2 | 17.5 | 27.4 | –
COC1=C(C)C(=O)C2=C(C1=O)[C@@H]1[C@@H]3CC4=C(C(=O)C(OC)=C(C)C4=O)[C@H](CNC(=O)c4ccccn4)N3[C@@H](C#N)[C@H](C2)N1C | 7.27 | 22.1 | 32.1 | 6.57 | 30 | 15.1 | 3.8 | 15.6 | 9.17 | 11.9 | –
COC1=C(C)C(=O)C2=C(C1=O)[C@@H]1[C@@H]3CC4=C(C(=O)C(OC)=C(C)C4=O)[C@H](CNC(=O)/C=C/c4ccnc5ccccc45)N3[C@@H](C#N)[C@H](C2)N1C | 8.33 | 18.2 | 17.1 | 23.4 | 35.7 | 11.5 | 18.2 | 2.23 | 5.7 | 17.5 | –
COC1=C(C)C(=O)C2=C(C1=O)[C@@H]1[C@@H]3CC4=C(C(=O)C(OC)=C(C)C4=O)[C@H](CNC(=O)c4ccc5c(c4)OCO5)N3[C@@H](C#N)[C@H](C2)N1C | 3.34 | 21.1 | 20 | 2.18 | 69 | 6.88 | 2.02 | 4.79 | 3.94 | 5.11 | –
COC1=C(C)C(=O)C2=C(C1=O)[C@@H]1[C@@H]3CC4=C(C(=O)C(OC)=C(C)C4=O)[C@H](CNC(=O)OC(C)(C)C)N3[C@@H](C#N)[C@H](C2)N1C | 7.41 | > 100 | 66.2 | 18.4 | 34.3 | 12.9 | 5.38 | 8.89 | 29.4 | 22.7 | –
COC1=C(C)C(=O)C2=C(C1=O)[C@@H]1[C@@H]3CC4=C(C(=O)C(OC)=C(C)C4=O)[C@H](CNC(=O)c4cc(OC)c(OC)c(OC)c4)N3[C@@H](C#N)[C@H](C2)N1C | 2.52 | 14.9 | 4.19 | 3.38 | 18.8 | 3.63 | 3.03 | 1.13 | 1.27 | 3.67 | –
COC1=C(C)C(=O)C2=C(C1=O)[C@@H]1[C@@H]3CC4=C(C(=O)C(OC)=C(C)C4=O)[C@H](CNC(=O)CNC(=O)c4ccccc4)N3[C@@H](C#N)[C@H](C2)N1C | 10.7 | 58.5 | 27.7 | 16.7 | 10 | 23.6 | 22.4 | 39.5 | 16.9 | 43.9 | –
